Laboratory results reported in PubChem BioAssay AID1919007 (Molecular Pharmacology Branch, DTP, NCI, 2023).

Test system: A498 complex spheroids with HUVEC/MSC, growth
Test: Anticancer human tumor A498 cell line growth inhibition [AhR];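 further: seven day exposure starting three days after spheroid seeding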;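 on viability, T/C: luminescence signal used as a surrogate for viable cells; luminescence viability scaled so 100% equals DMSO vehicle wells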
Settings: for IC50: curve of first compound; for viability, T/C: stronger effect = lower value
In short: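 Complex tumor spheroids co-cultured with HUVEC and human MSC stroma; AhR antagonists tested in combination with standard-of-care and investigational agents. Top concentration at or near clinical Cmax (else 10 microM), half-log dilutions; growth expressed as percent test/control.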

[1] = second compound 0.1 µM, first compound 0.00949 µM
[2] = second compound 0.1 µM, first compound 0.03 µM
[3] = second compound 0.1 µM, first compound 0.0949 µM
[4] = second compound 0.1 µM, first compound 0.3 µM
[5] = second compound 0.1 µM, first compound 0.949 µM
[6] = second compound 0.1 µM, first compound 3 µM
[7] = second compound 0.316 µM, first compound 0.00949 µM
[8] = second compound 0.316 µM, first compound 0.03 µM
[9] = second compound 0.316 µM, first compound 0.0949 µM
[10] = second compound 0.316 µM, first compound 0.3 µM
[11] = second compound 0.316 µM, first compound 0.949 µM
[12] = second compound 0.316 µM, first compound 3 µM
[13] = second compound 1 µM, first compound 0.00949 µM
[14] = second compound 1 µM, first compound 0.03 µM
[15] = second compound 1 µM, first compound 0.0949 µM
[16] = second compound 1 µM, first compound 0.3 µM
[17] = second compound 1 µM, first compound 0.949 µM
[18] = second compound 1 µM, first compound 3 µM
[19] = second compound 3.16 µM, first compound 0.00949 µM
[20] = second compound 3.16 µM, first compound 0.03 µM
[21] = second compound 3.16 µM, first compound 0.0949 µM
[22] = second compound 3.16 µM, first compound 0.3 µM
[23] = second compound 3.16 µM, first compound 0.949 µM
[24] = second compound 3.16 µM, first compound 3 µM
[25] = second compound 10 µM, first compound 0.00949 µM
[26] = second compound 10 µM, first compound 0.03 µM
[27] = second compound 10 µM, first compound 0.0949 µM
[28] = second compound 10 µM, first compound 0.3 µM
[29] = second compound 10 µM, first compound 0.949 µM
[30] = second compound 10 µM, first compound 3 µM

Q: With CCN(c1cc(-c2ccc(CN3CCOCC3)cc2)cc(C(=O)NCc2c(C)cc(C)[nH]c2=O)c1C)C1CCOCC1 + CC(CO)NC(=O)c1cc(-c2ccc(Cl)cc2)nn(-c2cnn(C)c2)c1=O as the molecule, how does the IC50 (second compound 0.1 µM) read?
A: The IC50 was over 3000 nM.

Q: What about the IC50 (second compound 0.316 µM) of the same molecule?
A: Its IC50 is over 3000 nM.

Q: What about the IC50 (second compound 1 µM) of the same molecule?
A: The IC50 was over 3000 nM.

Q: And the IC50 (second compound 3.16 µM)?
A: The IC50 was over 3000 nM.

Q: And the IC50 (second compound 10 µM)?
A: Its IC50 is over 3000 nM.

Q: What about the viability, T/C [1] of the same molecule?
A: Its viability, T/C is 99.8%.

Q: And the viability, T/C [2]?
A: Its viability, T/C is 95%.

Q: What about the viability, T/C [3] of the same molecule?
A: Its viability, T/C is 97.8%.

Q: And the viability, T/C [4]?
A: Its viability, T/C is 95.6%.

Q: And the viability, T/C [5]?
A: Its viability, T/C is 102%.

Q: And the viability, T/C [6]?
A: Its viability, T/C is 103%.

Q: What about the viability, T/C [7] of the same molecule?
A: Its viability, T/C is 93.2%.

Q: And the viability, T/C [8]?
A: The viability, T/C was 101%.

Q: And the viability, T/C [9]?
A: Its viability, T/C is 97.8%.

Q: And the viability, T/C [10]?
A: The viability, T/C was 93.3%.

Q: And the viability, T/C [11]?
A: Its viability, T/C is 96.1%.

Q: And the viability, T/C [12]?
A: The viability, T/C was 98.9%.

Q: And the viability, T/C [13]?
A: The viability, T/C was 94.4%.

Q: What about the viability, T/C [14] of the same molecule?
A: Its viability, T/C is 95.8%.

Q: And the viability, T/C [15]?
A: Its viability, T/C is 103%.

Q: What about the viability, T/C [16] of the same molecule?
A: Its viability, T/C is 92.3%.

Q: What about the viability, T/C [17] of the same molecule?
A: The viability, T/C was 95.4%.

Q: And the viability, T/C [18]?
A: Its viability, T/C is 97.4%.

Q: What about the viability, T/C [19] of the same molecule?
A: Its viability, T/C is 84.3%.

Q: And the viability, T/C [20]?
A: The viability, T/C was 96.2%.

Q: And the viability, T/C [21]?
A: Its viability, T/C is 101%.

Q: What about the viability, T/C [22] of the same molecule?
A: The viability, T/C was 88.5%.

Q: What about the viability, T/C [23] of the same molecule?
A: Its viability, T/C is 85.6%.

Q: What about the viability, T/C [24] of the same molecule?
A: Its viability, T/C is 102%.

Q: And the viability, T/C [25]?
A: The viability, T/C was 72.7%.

Q: And the viability, T/C [26]?
A: The viability, T/C was 77.5%.

Q: What about the viability, T/C [27] of the same molecule?
A: The viability, T/C was 83.3%.

Q: And the viability, T/C [28]?
A: Its viability, T/C is 75.3%.

Q: What about the viability, T/C [29] of the same molecule?
A: The viability, T/C was 70.3%.

Q: What about the viability, T/C [30] of the same molecule?
A: Its viability, T/C is 75.9%.

Q: Which results are given for Nc1ncn(C2CC(O)C(CO)S2)c(=O)n1 (stereo not given) + CC(CO)NC(=O)c1cc(-c2ccc(Cl)cc2)nn(-c2cnn(C)c2)c1=O?
A: IC50 (second compound 0.1 µM): > 300 nM; IC50 (second compound 0.316 µM): > 300 nM; IC50 (second compound 1 µM): > 300 nM; IC50 (second compound 3.16 µM): > 300 nM; IC50 (second compound 10 µM): > 300 nM; viability, T/C (second compound 0.1 µM, first compound 0.000949 µM): 98%; viability, T/C (second compound 0.1 µM, first compound 0.003 µM): 101%; viability, T/C [1]: 96.3%; viability, T/C [2]: 93.8%; viability, T/C [3]: 83.6%; viability, T/C [4]: 68.8%; viability, T/C (second compound 0.316 µM, first compound 0.000949 µM): 93%; viability, T/C (second compound 0.316 µM, first compound 0.003 µM): 109%; viability, T/C [7]: 95.5%; viability, T/C [8]: 86%; viability, T/C [9]: 83.4%; viability, T/C [10]: 72.1%; viability, T/C (second compound 1 µM, first compound 0.000949 µM): 96.5%; viability, T/C (second compound 1 µM, first compound 0.003 µM): 99%; viability, T/C [13]: 98.2%; viability, T/C [14]: 92.5%; viability, T/C [15]: 87.4%; viability, T/C [16]: 70.3%; viability, T/C (second compound 3.16 µM, first compound 0.000949 µM): 87.5%; viability, T/C (second compound 3.16 µM, first compound 0.003 µM): 90.9%; viability, T/C [19]: 105%; viability, T/C [20]: 76.6%; viability, T/C [21]: 69.7%; viability, T/C [22]: 70.6%; viability, T/C (second compound 10 µM, first compound 0.000949 µM): 74.9%; viability, T/C (second compound 10 µM, first compound 0.003 µM): 78.3%; viability, T/C [25]: 78.3%; viability, T/C [26]: 71.9%; viability, T/C [27]: 65%; viability, T/C [28]: 59.3%

Q: How did the IC50 (second compound 0.1 µM) turn out when O=C(C=Cn1cnc(-c2cc(C(F)(F)F)cc(C(F)(F)F)c2)n1)NNc1cnccn1 + CC(CO)NC(=O)c1cc(-c2ccc(Cl)cc2)nn(-c2cnn(C)c2)c1=O was run?
A: Its IC50 is 58.5 nM.

Q: What about the IC50 (second compound 0.316 µM) of the same molecule?
A: Its IC50 is 51.6 nM.

Q: And the IC50 (second compound 1 µM)?
A: Its IC50 is 45.8 nM.

Q: And the IC50 (second compound 3.16 µM)?
A: Its IC50 is 32.7 nM.

Q: What about the IC50 (second compound 10 µM) of the same molecule?
A: Its IC50 is 9.75 nM.

Q: And the viability, T/C [1]?
A: Its viability, T/C is 72.7%.

Q: What about the viability, T/C [2] of the same molecule?
A: The viability, T/C was 69%.

Q: And the viability, T/C [3]?
A: The viability, T/C was 36.2%.

Q: And the viability, T/C [4]?
A: The viability, T/C was 23.2%.

Q: What about the viability, T/C [5] of the same molecule?
A: Its viability, T/C is 22.3%.

Q: What about the viability, T/C [6] of the same molecule?
A: The viability, T/C was 17.8%.

Q: And the viability, T/C [7]?
A: The viability, T/C was 74.8%.

Q: What about the viability, T/C [8] of the same molecule?
A: Its viability, T/C is 62.7%.

Q: And the viability, T/C [9]?
A: Its viability, T/C is 35.4%.

Q: What about the viability, T/C [10] of the same molecule?
A: The viability, T/C was 23.1%.

Q: What about the viability, T/C [11] of the same molecule?
A: Its viability, T/C is 17.9%.

Q: And the viability, T/C [12]?
A: Its viability, T/C is 14.7%.

Q: And the viability, T/C [13]?
A: The viability, T/C was 67.2%.

Q: And the viability, T/C [14]?
A: Its viability, T/C is 58.8%.

Q: What about the viability, T/C [15] of the same molecule?
A: Its viability, T/C is 35.3%.

Q: What about the viability, T/C [16] of the same molecule?
A: Its viability, T/C is 23.1%.

Q: What about the viability, T/C [17] of the same molecule?
A: The viability, T/C was 18.5%.

Q: What about the viability, T/C [18] of the same molecule?
A: The viability, T/C was 16.7%.

Q: And the viability, T/C [19]?
A: Its viability, T/C is 61.3%.

Q: What about the viability, T/C [20] of the same molecule?
A: The viability, T/C was 51.4%.

Q: And the viability, T/C [21]?
A: The viability, T/C was 32.1%.

Q: What about the viability, T/C [22] of the same molecule?
A: The viability, T/C was 20.7%.

Q: What about the viability, T/C [23] of the same molecule?
A: The viability, T/C was 15.7%.

Q: What about the viability, T/C [24] of the same molecule?
A: The viability, T/C was 18.4%.

Q: And the viability, T/C [25]?
A: Its viability, T/C is 49.9%.

Q: And the viability, T/C [26]?
A: The viability, T/C was 46.5%.

Q: And the viability, T/C [27]?
A: Its viability, T/C is 31.2%.

Q: And the viability, T/C [28]?
A: Its viability, T/C is 20.9%.

Q: And the viability, T/C [29]?
A: The viability, T/C was 18.5%.

Q: What about the viability, T/C [30] of the same molecule?
A: The viability, T/C was 17.4%.
